Laboratory results published in the supplement of paper PMC10307832.

Key:
Assay in all cases: relative viability (nuclei count vs DMSO), 5 days (fraction); higher = more cells survive
[1] = compound: C1CN(CCN1)C2=CC=C(C=C2)C3=CN4C(=C(C=N4)C5=CC=NC6=CC=CC=C56)N=C3 [DM3189]
Outline: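 Viability was defined as treated-well nuclei divided by vehicle-well nuclei, with the median taken over replicate plates. Cells from lung cancer lines sat overnight at 37 °C in 1536-well plates, received five √10-spaced library-drug doses by pinning on vehicle-anchored plates, and grew 5 days without medium change before one-step fixation, permeabilisation and Hoechst staining, 4× imaging and MetaXpress nuclear counts. Only plates with control CV under 25% and at least one doubling were kept.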

[2] = compound: C1CN(CCN1)C2=CC=C(C=C2)C3=CN4C(=C(C=N4)C5=CC=NC6=CC=CC=C56)N=C3 [DM3189] + CC1(C)CCC(c2ccc(Cl)cc2)=C(CN2CCN(c3ccc(C(=O)NS(=O)(=O)c4ccc(N[C@H](CCN5CCOCC5)CSc5ccccc5)c(S(=O)(=O)C(F)(F)F)c4)cc3)CC2)C1 [Navitoclax] (partner 0.5 µM)
Outline: (§1)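 Relative viability is defined as nuclei in treated wells over nuclei in vehicle wells. Duplicate plates were run and medians reported. Lung cancer cell lines in 1536-well plates were dosed by pin tool one day after seeding, with one drug or with a fixed anchor-drug dose plus five library-drug doses (not always all listed) in √10 steps, and nuclei were counted after 5 days.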

[3] = compound: C1CN(CCN1)C2=CC=C(C=C2)C3=CN4C(=C(C=N4)C5=CC=NC6=CC=CC=C56)N=C3 [DM3189] + C[C@]1(O)C[C@@H](c2nc(-c3ccc4ccc(-c5ccccc5)nc4c3)c3c(N)nccn32)C1 [Linsitinib] (partner 1 µM)
Outline: as §1

[4] = compound: C1CN(CCN1)C2=CC=C(C=C2)C3=CN4C(=C(C=N4)C5=CC=NC6=CC=CC=C56)N=C3 [DM3189] + CC(C)C[C@H](NC(=O)[C@H](Cc1ccccc1)NC(=O)c1cnccn1)B(O)O [Bortezomib] (partner 0.002 µM)
Outline: as §1

[5] = compound: C1CN(CCN1)C2=CC=C(C=C2)C3=CN4C(=C(C=N4)C5=CC=NC6=CC=CC=C56)N=C3 [DM3189] + C[C@@H](Oc1cc(-c2cnn(C3CCNCC3)c2)cnc1N)c1c(Cl)ccc(F)c1Cl [Crizotinib] (partner 1 µM)
Outline: as §1

[6] = compound: C1CN(CCN1)C2=CC=C(C=C2)C3=CN4C(=C(C=N4)C5=CC=NC6=CC=CC=C56)N=C3 [DM3189] + CS(=O)(=O)N1CCN(Cc2cc3nc(-c4cccc5[nH]ncc45)nc(N4CCOCC4)c3s2)CC1 [Pictilisib] (partner 1 µM)
Outline: as §1

[7] = compound: C1CN(CCN1)C2=CC=C(C=C2)C3=CN4C(=C(C=N4)C5=CC=NC6=CC=CC=C56)N=C3 [DM3189] + CS(=O)(=O)CCNCc1ccc(-c2ccc3ncnc(Nc4ccc(OCc5cccc(F)c5)c(Cl)c4)c3c2)o1 [Lapatinib] (partner 2 µM)
Outline: as §1

[8] = compound: C1CN(CCN1)C2=CC=C(C=C2)C3=CN4C(=C(C=N4)C5=CC=NC6=CC=CC=C56)N=C3 [DM3189] + COc1cc2c(Oc3ccc(NC(=O)C4(C(=O)Nc5ccc(F)cc5)CC4)cc3F)ccnc2cc1OCCCN1CCOCC1 [Foretinib] (partner 0.25 µM)
Outline: as §1

[9] = compound: C1CN(CCN1)C2=CC=C(C=C2)C3=CN4C(=C(C=N4)C5=CC=NC6=CC=CC=C56)N=C3 [DM3189] + O=C(c1cc(Cc2n[nH]c(=O)c3ccccc23)ccc1F)N1CCN(C(=O)C2CC2)CC1 [Olaparib] (partner 8 µM)
Outline: as §1

[10] = compound: C1CN(CCN1)C2=CC=C(C=C2)C3=CN4C(=C(C=N4)C5=CC=NC6=CC=CC=C56)N=C3 [DM3189] + Cc1nc(NC(=O)N2CCC[C@H]2C(N)=O)sc1-c1ccnc(C(C)(C)C(F)(F)F)c1 [Alpelisib] (partner 2 µM)
Outline: as §1

NCI-H1299
relative viability ([1]; 0.08 µM): 0.967
relative viability ([1]; 0.253 µM): 0.987
relative viability ([1]; 0.8 µM): 0.976
relative viability ([1]; 2.53 µM): 1.04
relative viability ([2]; first compound 0.08 µM): 1.03
relative viability ([2]; first compound 0.253 µM): 0.985
relative viability ([2]; first compound 0.8 µM): 1.02
relative viability ([2]; first compound 2.53 µM): 1.03
relative viability ([3]; first compound 0.08 µM): 0.998
relative viability ([3]; first compound 0.253 µM): 1.01
relative viability ([3]; first compound 0.8 µM): 0.958
relative viability ([3]; first compound 2.53 µM): 1.06
relative viability ([4]; first compound 0.08 µM): 1.06
relative viability ([4]; first compound 0.253 µM): 1.01
relative viability ([4]; first compound 0.8 µM): 1.01
relative viability ([4]; first compound 2.53 µM): 1.01
relative viability ([5]; first compound 0.08 µM): 0.99
relative viability ([5]; first compound 0.253 µM): 0.914
relative viability ([5]; first compound 0.8 µM): 0.924
relative viability ([5]; first compound 2.53 µM): 0.983
relative viability ([6]; first compound 0.08 µM): 0.911
relative viability ([6]; first compound 0.253 µM): 0.776
relative viability ([6]; first compound 0.8 µM): 0.59
relative viability ([6]; first compound 2.53 µM): 0.495
relative viability ([7]; first compound 0.08 µM): 1.01
relative viability ([7]; first compound 0.253 µM): 0.926
relative viability ([7]; first compound 0.8 µM): 0.899
relative viability ([7]; first compound 2.53 µM): 0.94
relative viability ([8]; first compound 0.08 µM): 1.09
relative viability ([8]; first compound 0.253 µM): 0.996
relative viability ([8]; first compound 0.8 µM): 1.06
relative viability ([8]; first compound 2.53 µM): 1.08
relative viability ([9]; first compound 0.08 µM): 0.963
relative viability ([9]; first compound 0.253 µM): 0.922
relative viability ([9]; first compound 0.8 µM): 0.753
relative viability ([9]; first compound 2.53 µM): 1.05
relative viability ([10]; first compound 0.08 µM): 1.09
relative viability ([10]; first compound 0.253 µM): 1.07
relative viability ([10]; first compound 0.8 µM): 0.968
relative viability ([10]; first compound 2.53 µM): 1.15
